Data: patent publication US20230312556A1, “ARYLAMIDE COMPOUND, PHARMACEUTICAL COMPOSITION COMPRISING SAME, AND PREPARATION METHOD THEREFOR AND USE THEREOF” (SICHUAN KELUN-BIOTECH BIOPHARMACEUTICAL CO., LTD., priority 2020, published 2023)

Molecular target: mutant BRAF enzyme (BRAF-V600E) (Homo sapiens (Human), UniProt P15056, V600E)
Experiment: RAF inhibition assay (TB-PMAP2K1 kit), BRAF-V600E
Assay type: biochemical
Details: FLUORESCEIN-MAP2K1 substrate, 60 min reaction

mutant BRAF enzyme (BRAF-V600E), sequence (P15056 whole entry V600E): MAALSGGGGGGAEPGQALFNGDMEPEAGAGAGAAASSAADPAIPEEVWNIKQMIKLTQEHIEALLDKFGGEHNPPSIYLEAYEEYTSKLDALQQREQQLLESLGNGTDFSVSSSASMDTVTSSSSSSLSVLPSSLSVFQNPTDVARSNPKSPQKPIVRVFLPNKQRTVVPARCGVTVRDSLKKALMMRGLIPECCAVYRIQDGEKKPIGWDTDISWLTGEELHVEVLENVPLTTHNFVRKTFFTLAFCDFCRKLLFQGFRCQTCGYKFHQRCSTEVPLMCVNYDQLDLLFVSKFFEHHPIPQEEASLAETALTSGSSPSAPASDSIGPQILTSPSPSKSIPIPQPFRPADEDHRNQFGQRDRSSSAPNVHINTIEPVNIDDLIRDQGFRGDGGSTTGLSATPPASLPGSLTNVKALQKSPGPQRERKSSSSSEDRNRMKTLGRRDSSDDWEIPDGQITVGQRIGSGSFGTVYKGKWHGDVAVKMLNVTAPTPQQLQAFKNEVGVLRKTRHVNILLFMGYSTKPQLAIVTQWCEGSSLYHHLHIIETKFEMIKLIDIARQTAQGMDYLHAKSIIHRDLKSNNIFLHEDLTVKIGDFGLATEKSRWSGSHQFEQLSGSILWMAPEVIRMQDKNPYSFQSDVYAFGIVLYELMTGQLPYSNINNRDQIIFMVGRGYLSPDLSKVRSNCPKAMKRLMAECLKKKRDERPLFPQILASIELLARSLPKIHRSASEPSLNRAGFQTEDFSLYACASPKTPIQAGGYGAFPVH

Q: How did the IC50 turn out when `Cc1ccc2c(Nc3ccc(CN(C)C)cc3)nccc2c1NC(=O)c1cccc2c(N)ncnc12` [Compound 40, 4-amino-N-(1-((4-((dimethylamino)methyl)phenyl)amino)-6-methylisoquinolin-5-yl)quinazoline-8-carboxamide] was run?
A: The IC50 was 0.00851 ± 0.00102 µM.

Q: For `Cc1ccc2c(Cc3ccc(Cl)c(CN(C)C)c3)nccc2c1NC(=O)c1csc2c(N)ncnc12` [Compound 42, 4-amino-N-(1-(4-chloro-3-((dimethylamino)methyl)benzyl)-6-methylisoquinolin-5-yl)thieno[3,2-d]pyrimidine-7-carboxamide], which IC50 is on record?
A: The IC50 was 0.0358 ± 0.00902 µM.

Q: For `Cc1ccc2c(Nc3ccccc3F)nccc2c1NC(=O)c1cnc2c(N)ncnn12` [Compound 44, 4-amino-N-(1-((2-fluorophenyl)amino)-6-methylisoquinolin-5-yl)imidazo[2,1-f][1,2,4]triazine-7-carboxamide], which IC50 is on record?
A: The IC50 was 0.00088 ± 0.00015 µM.

Q: For `Cc1cc(C(=O)Nc2c(C)ccc3c(Nc4cccc(Cl)c4F)nccc23)c2ncnc(N)c2c1` [Compound 45, 4-amino-N-(1-((3-chloro-2-fluorophenyl)amino)-6-methylisoquinolin-5-yl)-6-methylquinazoline-8-carboxamide], which IC50 is on record?
A: Its IC50 is 0.0182 ± 0.00752 µM.

Q: With `Cc1ccc2c(Nc3cccc(Cl)c3F)nccc2c1NC(=O)c1cc(N2CCOCC2)cc2c(N)ncnc12` [Compound 53, 4-amino-N-(1-((3-chloro-2-fluorophenyl)amino)-6-methylisoquinolin-5-yl)-6-morpholinoquinazoline-8-carboxamide] as the molecule, how does the IC50 read?
A: The IC50 was 0.0173 ± 0.00343 µM.

Q: Which IC50 does the source give for `Cc1ccc2c(Nc3cccc(Cl)c3F)nccc2c1NC(=O)c1cc(N2CCN(C)CC2)cc2c(N)ncnc12` [Compound 54, 4-amino-N-(1-((3-chloro-2-fluorophenyl)amino)-6-methylisoquinolin-5-yl)-6-(4-methylpiperazin-1-yl)quinazoline-8-carboxamide] here?
A: The IC50 was 0.011 ± 0.00202 µM.

Q: With `Cc1ccc2c(Nc3ccc(Cl)cc3F)nccc2c1NC(=O)c1cnc2c(N)ncnn12` [Compound 55, 4-amino-N-(1-((4-chloro-2-fluorophenyl)amino)-6-methylisoquinolin-5-yl)imidazo[2,1-f][1,2,4]triazine-7-carboxamide] as the molecule, how does the IC50 read?
A: Its IC50 is 0.00286 ± 0.00024 µM.

Q: For `COc1ccc(Nc2nccc3c(NC(=O)c4cnc5c(N)ncnn45)c(C)ccc23)cc1Cl` [Compound 56, 4-amino-N-(1-((3-chloro-4-methoxyphenyl)amino)-6-methylisoquinolin-5-yl)imidazo[2,1-f][1,2,4]triazine-7-carboxamide], which IC50 is on record?
A: The IC50 was 0.00316 ± 0.00067 µM.

Q: With `COc1ccc(Nc2nccc3c(NC(=O)c4cccc5c(N)ncnc45)c(C)ccc23)cc1` [Compound 57, 4-amino-N-(1-((4-methoxyphenyl)amino)-6-methylisoquinolin-5-yl)quinazoline-8-carboxamide] as the molecule, how does the IC50 read?
A: Its IC50 is 0.00289 ± 0.00034 µM.

Q: With `Cc1ccc2c(Nc3ccc(N(C)C)nc3)nccc2c1NC(=O)c1cccc2c(N)ncnc12` [Compound 59, 4-amino-N-(1-((6-(dimethylamino)pyridin-3-yl)amino)-6-methylisoquinolin-5-yl)quinazoline-8-carboxamide] as the molecule, how does the IC50 read?
A: The IC50 was 0.013 ± 0.00135 µM.

Q: For `COc1ccc(Nc2nccc3c(NC(=O)c4cnc5c(N)ncnn45)c(C)ccc23)c(F)c1` [Compound 61, 4-amino-N-(1-((2-fluoro-4-methoxyphenyl)amino)-6-methylisoquinolin-5-yl)imidazo[2,1-f][1,2,4]triazine-7-carboxamide], which IC50 is on record?
A: Its IC50 is 0.00288 ± 0.00074 µM.

Q: With `Cc1ccc2c(Nc3ccc(CN(C)C)c(C(F)(F)F)c3)nccc2c1NC(=O)c1cnc2c(N)ncnn12` [Compound 62, 4-amino-N-(1-((4-((dimethylamino)methyl)-3-(trifluoromethyl)phenyl)amino)-6-methylisoquinolin-5-yl)imidazo[2,1-f][1,2,4]triazine-7-carboxamide] as the molecule, how does the IC50 read?
A: The IC50 was 0.0197 ± 0.00467 µM.

Q: Which IC50 does the source give for `CC(=O)c1ccc(Nc2nccc3c(NC(=O)c4cccc5c(N)ncnc45)c(C)ccc23)cc1` [Compound 63, N-(1-((4-acetylphenyl)amino)-6-methylisoquinolin-5-yl)-4-aminoquinazoline-8-carboxamide] here?
A: The IC50 was 0.00539 ± 0.0008 µM.

Q: Which IC50 does the source give for `Cc1ccc2c(Nc3ccc(Cl)c(CN(C)C)c3)nccc2c1NC(=O)c1cccc2c(N)ncnc12` [Compound 64, 4-amino-N-(1-((4-chloro-3-((dimethylamino)methyl)phenyl)amino)-6-methylisoquinolin-5-yl)quinazoline-8-carboxamide] here?
A: Its IC50 is 0.013 ± 0.00358 µM.

Q: `Cc1ccc(Nc2nccc3c(NC(=O)c4cccc5c(N)ncnc45)c(C)ccc23)cc1` [Compound 65, 4-amino-N-(6-methyl-1-(p-tolylamino)isoquinolin-5-yl)quinazoline-8-carboxamide] was tested. Which IC50 did it give?
A: Its IC50 is 0.0048 ± 0.00078 µM.

Q: With `Cc1ccc2c(Nc3cccc(Cl)c3F)nccc2c1NC(=O)c1nccc2c(N)ncnc12` [Compound 66, 4-amino-N-(1-((3-chloro-2-fluorophenyl)amino)-6-methylisoquinolin-5-yl)pyrido[3,4-d]pyrimidine-8-carboxamide] as the molecule, how does the IC50 read?
A: Its IC50 is 0.00257 ± 0.00032 µM.

Q: With `COc1ccc(Nc2nccc3c(NC(=O)c4cccc5c(N)ncnc45)c(C)ccc23)cc1OC` [Compound 68, 4-amino-N-(1-((3,4-dimethoxyphenyl)amino)-6-methylisoquinolin-5-yl)quinazoline-8-carboxamide] as the molecule, how does the IC50 read?
A: Its IC50 is 0.015 ± 0.00265 µM.

Q: How did the IC50 turn out when `Cc1ccc2c(Nc3cccc(Cl)c3F)nccc2c1NC(=O)c1cncc2c(N)ncnc12` [Compound 69, 4-amino-N-(1-((3-chloro-2-fluorophenyl)amino)-6-methylisoquinolin-5-yl)pyrido[4,3-d]pyrimidine-8-carboxamide] was run?
A: The IC50 was 0.0043 ± 0.00114 µM.

Q: `Cc1ccc2c(Nc3ccc(Cl)c(F)c3F)nccc2c1NC(=O)c1cnc2c(N)ncnn12` [Compound 70, 4-amino-N-(1-((4-chloro-2,3-difluorophenyl)amino)-6-methylisoquinolin-5-yl)imidazo[2,1-f][1,2,4]triazine-7-carboxamide] was tested. Which IC50 did it give?
A: The IC50 was 0.0105 ± 0.00172 µM.

Q: `Cc1ccc2c(Nc3ccnc(C(F)(F)F)c3)nccc2c1NC(=O)c1cccc2c(N)ncnc12` [Compound 71, 4-amino-N-(6-methyl-1-((2-(trifluoromethyl)pyridin-4-yl)amino)isoquinolin-5-yl)quinazoline-8-carboxamide] was tested. Which IC50 did it give?
A: Its IC50 is 0.023 ± 0.00176 µM.

Q: With `Cc1ccc2c(Nc3cc(F)ccc3F)nccc2c1NC(=O)c1cccc2c(N)ncnc12` [Compound 72, 4-amino-N-(1-((2,5-difluorophenyl)amino)-6-methylisoquinolin-5-yl)quinazoline-8-carboxamide] as the molecule, how does the IC50 read?
A: The IC50 was 0.0069 ± 0.0013 µM.

Q: How did the IC50 turn out when `CCOc1ccc(Nc2nccc3c(NC(=O)c4cccc5c(N)ncnc45)c(C)ccc23)c(F)c1` [Compound 74, 4-amino-N-(1-((4-ethoxy-2-fluorophenyl)amino)-6-methylisoquinolin-5-yl)quinazoline-8-carboxamide] was run?
A: The IC50 was 0.0138 ± 0.0009 µM.

Q: `COc1ccc(Nc2nccc3c(NC(=O)c4cccc5c(N)ncnc45)c(C)ccc23)cn1` [Compound 75, 4-amino-N-(1-((6-methoxypyridin-3-yl)amino)-6-methylisoquinolin-5-yl)quinazoline-8-carboxamide] was tested. Which IC50 did it give?
A: The IC50 was 0.00558 ± 0.00077 µM.

Q: How did the IC50 turn out when `Cc1ccc2c(Nc3cccc(Cl)c3F)nccc2c1NC(=O)c1cc(O)cc2c(N)ncnc12` [Compound 76, 4-amino-N-(1-((3-chloro-2-fluorophenyl)amino)-6-methylisoquinolin-5-yl)-6-hydroxyquinazoline-8-carboxamide] was run?
A: Its IC50 is 0.0293 ± 0.00332 µM.

Q: `Cc1ccc2c(Nc3ccc4c(c3)OCCO4)nccc2c1NC(=O)c1cccc2c(N)ncnc12` [Compound 77, 4-amino-N-(1-((2,3-dihydrobenzo[b][1,4]dioxin-6-yl)amino)-6-methylisoquinolin-5-yl)quinazoline-8-carboxamide] was tested. Which IC50 did it give?
A: Its IC50 is 0.0079 ± 0.00073 µM.

Q: How did the IC50 turn out when `Cc1ccc2c(Nc3ccc(C#N)cc3F)nccc2c1NC(=O)c1cccc2c(N)ncnc12` [Compound 78, 4-amino-N-(1-((4-cyano-2-fluorophenyl)amino)-6-methylisoquinolin-5-yl)quinazoline-8-carboxamide] was run?
A: The IC50 was 0.0124 ± 0.00094 µM.

Q: Which IC50 does the source give for `Cc1ccc2c(Nc3cccc(Cl)c3F)nccc2c1NC(=O)c1cc(OCCN2CCOCC2)cc2c(N)ncnc12` [Compound 79, 4-amino-N-(1-((3-chloro-2-fluorophenyl)amino)-6-methylisoquinolin-5-yl)-6-(2-morpholinoethoxy)quinazoline-8-carboxamide] here?
A: The IC50 was 0.0147 ± 0.00166 µM.

Q: Which IC50 does the source give for `Cc1ccc2c(Nc3cc(C#N)ccc3F)nccc2c1NC(=O)c1cccc2c(N)ncnc12` [Compound 80, 4-amino-N-(1-((5-cyano-2-fluorophenyl)amino)-6-methylisoquinolin-5-yl)quinazoline-8-carboxamide] here?
A: The IC50 was 0.0135 ± 0.0121 µM.

Q: Which IC50 does the source give for `Cc1ccc2c(Nc3cccc(Cl)c3F)nccc2c1NC(=O)c1ccnc2c(N)ncnc12` [Compound 81, 4-amino-N-(1-((3-chloro-2-fluorophenyl)amino)-6-methylisoquinolin-5-yl)pyrido[3,2-d]pyrimidine-8-carboxamide] here?
A: The IC50 was 0.022 ± 0.00369 µM.

Q: With `Cc1ccc2c(Nc3ccc4c(c3)CN(C)CC4)nccc2c1NC(=O)c1cccc2c(N)ncnc12` [Compound 82, 4-amino-N-(6-methyl-1-((2-methyl-1,2,3,4-tetrahydroisoquinolin-7-yl)amino)isoquinolin-5-yl)quinazoline-8-carboxamide] as the molecule, how does the IC50 read?
A: The IC50 was 0.0132 ± 0.00169 µM.

Q: With `Cc1ccc2c(Nc3cccc(C#N)c3F)nccc2c1NC(=O)c1cccc2c(N)ncnc12` [Compound 83, 4-amino-N-(1-((3-cyano-2-fluorophenyl)amino)-6-methylisoquinolin-5-yl)quinazoline-8-carboxamide] as the molecule, how does the IC50 read?
A: Its IC50 is 0.0151 ± 0.00162 µM.

Q: With `Cc1ccc2c(Nc3cc(Cl)ccc3F)nccc2c1NC(=O)c1cc(F)cc2c(N)ncnc12` [Compound 84, 4-amino-N-(1-((5-chloro-2-fluorophenyl)amino)-6-methylisoquinolin-5-yl)-6-fluoroquinazoline-8-carboxamide] as the molecule, how does the IC50 read?
A: Its IC50 is 0.0238 ± 0.00441 µM.

Q: With `Cc1ccc2c(Nc3cccc(Cl)c3F)nccc2c1NC(=O)c1cc(OCCO)cc2c(N)ncnc12` [Compound 86, 4-amino-N-(1-((3-chloro-2-fluorophenyl)amino)-6-methylisoquinolin-5-yl)-6-(2-hydroxyethoxy)quinazoline-8-carboxamide] as the molecule, how does the IC50 read?
A: Its IC50 is 0.0119 ± 0.0013 µM.

Q: Which IC50 does the source give for `COc1ccc(F)c(Nc2nccc3c(NC(=O)c4cccc5c(N)ncnc45)c(C)ccc23)c1` [Compound 87, 4-amino-N-(1-((2-fluoro-5-methoxyphenyl)amino)-6-methylisoquinolin-5-yl)quinazoline-8-carboxamide] here?
A: Its IC50 is 0.00464 ± 0.0007 µM.
